# According to article PMC4237514, “Novel amino-β-lactam derivatives as potent cholesterol absorption inhibitors” (European Journal of Medicinal Chemistry, 2014):
# Legend:
# MDCKII cells = test: MTT cytotoxicity assay in MDCKII wild type cells; type: cell-based; conditions: 72 h
# Procedure: Cytotoxicity of amino alcohols 5, 6 and their diastereoisomeric mixture 5/6 was analyzed using MTT cell proliferation assay and the LC50 values were determined in MDCKII wild type, hNPC1L1/MDCKII, and HepG2 cells (Table 2). MDCKII cells stably expressing human Niemann-Pick C1-like protein 1 (hNPC1L1/MDCKII) (Figure S1) are a pharmacologically validated system for investigating NPC1L1-mediated cholesterol uptake. The LC50 values were higher than 100 μM and considered nontoxic in all three cell lines. […] In addition, we tested the in vitro cytotoxicity of ezetimibe 1 and compounds 5, 6, and 5/6 (70:30) in combination with micelles and found all LC50 values to be above 100 μM (Figure S2).
# Madin–Darby Canine Kidney II (MDCKII) cells, MDCKII cells stably expressing human NPC1L1 (hNPC1L1/MDCKII), and human HepG2 liver cells were maintained in DMEM (Dulbecco's Modified Eagle Medium, Invitrogen, USA) containing 100 units/mL penicillin and 100 μg/mL streptomycin supplemented with 10% FCS (Sigma–Aldrich, Germany). The cells were grown at 37 °C in a humidified 5% CO2 incubator. Stable transfection of MDCKII cells with human NPC1L1 protein was performed using Lipofectamine LTX (Invitrogen, USA) according to the manufacturer's protocol. Selection with 1 mg/mL G418 (Sigma–Aldrich, Germany) was started 2 days after transfection. The concentration of G418 was decreased to 500 μg/mL after 14 days. Stably transfected cells were maintained in DMEM containing 100 units/mL penicillin and 100 μg/mL streptomycin supplemented with 10% FCS and 500 μg/mL G418.
# MDCKII, hNPC1L1/MDCKII, and HepG2 cells were seeded in 96-well microtiter plates on day 0 at densities of 3000 cells/well. On day 1, tested compounds (73 mM stock solution in DMSO) were added in five consecutive 10-fold dilutions (10^−8 to 10^−4 mol/L) and incubated for 72 h. Cytotoxicity of the compounds was assessed on day 4 by the MTT cell proliferation assay (Sigma–Aldrich, Germany) which detects mitochondrial dehydrogenase activity in viable cells. The results are expressed as LC50 and the values for each compound were calculated from dose–response curves using linear regression analysis. Each concentration was tested in quadruplicate in three independent experiments. Toxicity of the compounds in combination with micelles was also tested using the same method. MDCKII and hNPC1L1/MDCKII were seeded in 96-well microtiter plates (150 μL medium/well) at a density of 2 × 10^5 cells/mL medium 24 h before the experiment. Micelles were prepared according to the modified method reported by Field et al.. In brief, 0.25 mM oleic acid, 50 μM cholesterol, 10 μM compactin, 50 μM mevalonate, 5 mM Na-taurocholate (Sigma–Aldrich, Germany) in DMEM/10% FCS were mixed and sonicated. Following the micellar formation, compounds 1, 5, 6, and 5/6 (70:30) (73 mM stock solution in DMSO) were added to the medium and vortexed to obtain the final concentrations of the compounds (25, 50, 100, 150, 200 μM) and applied to the cells for 1 h. Thereafter, cytotoxicity was determined using the MTT assay.
# MDCKII wildtype cells = test: In vitro [3H]cholesterol uptake assay in MDCKII wildtype cells; type: cell-based, Canine; conditions: Figure S3
# Procedure: Medium A contained DMEM plus 100 units/mL penicillin and 100 μg/mL streptomycin supplemented with 5% lipoprotein-deficient serum (density > 1.21 g/mL, prepared from FCS by ultracentrifugation). Cholesterol Replenishing Medium (Medium B) was prepared according to the modified method reported by Field et al.. In brief, 0.25 mM oleic acid, 50 μM free cholesterol, 10 μM compactin, 50 μM mevalonate, 5 mM Na-taurocholate (Sigma–Aldrich, Germany), and [^3H]cholesterol (0.18 μCi/mL medium, [1,2–3H(N)] cholesterol, 1 mCi/mL (ARC Inc., USA)) in Medium A were mixed and sonicated. Following the micellar formation, compounds 1, 5, 6, 5/6 (70:30), and 6/5 (85:15) (73 mM stock solution in DMSO) were added to Medium B and vortexed to obtain the final concentrations (10, 30, 60, 90, 120, 150, 200 μM).
# MDCKII wildtype and hNPC1L1/MDCKII cells were seeded in 24-well plates at a density of 5 × 10^5 cells/mL medium (500 μL medium/well) in Medium A 24 h before the treatment. […] Cells were lysed and radioactivity in the lysate (100 μL) was determined by liquid scintillation counting. Protein concentrations of the lysates were determined with the DC Protein Assay (Bio-Rad, USA). The results were calculated as cpm/mg protein and expressed as percentage of inhibition compared to untreated cells. […]
compound,measurement,setting,value
"O=C1[C@H](CC[C@H](O)c2ccc(F)cc2)[C@@H](c2ccc(O)cc2)N1c1ccc(F)cc1 [Compound 1, ezetimibe, reference compound]","LC50, MDCKII",MDCKII cells,no toxicity
same,effect on cholesterol uptake,MDCKII wildtype cells,no effect
